Test results as given in article PMC4861662 (ChemMedChem, 2016).
Read-outs that look alike come from different tables or passages of the source.

Experiments:
[1] = container M2, ref [20a],[21a], cited from earlier work; for Initial slope of the PSD: 20 mM sodium phosphate buffered D2O, pD 7.4, rt; for Krel: referenced to the weakest binding container (generally HP-β-CD), TL = too large to be determined because slope ≈ 1
[2] = container HP-β-CD; from PSD slope and S0 (equation 1); ref [20a],[21a]; cited from earlier work
Phase solubility diagram [3] = details: for Initial slope of the PSD / Ka of container•drug complex / Highest drug concentration achieved with container: container SBE-β-CD; for Initial slope of the PSD: 20 mM sodium phosphate buffered D2O, pD 7.4, rt; for Ka of container•drug complex: from PSD slope and S0 (equation 1)
Phase solubility diagram [4] = details: for Initial slope of the PSD / Ka of container•drug complex / Krel: container M2C4; for Initial slope of the PSD: 20 mM sodium phosphate buffered D2O, pD 7.4, rt, Gel = gel formed; for Ka of container•drug complex: from PSD slope and S0 (equation 1); for Krel: referenced to the weakest binding container (generally HP-β-CD)
Phase solubility diagram [5] = details: for Initial slope of the PSD / Ka of container•drug complex / Krel / Highest drug concentration achieved with container: container M2C2; for Initial slope of the PSD: 20 mM sodium phosphate buffered D2O, pD 7.4, rt; for Ka of container•drug complex: from PSD slope and S0 (equation 1); for Krel: referenced to the weakest binding container (generally HP-β-CD)
Phase solubility diagram [6] = details: container M2
[7] = Inherent solubility of the drug; details: 20 mM sodium phosphate buffered D2O, pD 7.4, rt
[8] = Inherent solubility of container by 1H NMR assay of saturated solution; format: physicochemical; details: SBE-β-CD

Row | Molecule | Initial slope of the PSD [1] | Ka of container•drug complex [2] [M⁻¹] | Initial slope of the PSD (Phase solubility diagram [3]) | Ka of container•drug complex (Phase solubility diagram [3]) [M⁻¹] | concentration of M2C4 above which gels form with drug (Phase solubility diagram [4]; M2C4 used as solubilizing agent) | Initial slope of the PSD (Phase solubility diagram [5]) | Ka of container•drug complex (Phase solubility diagram [5]) [M⁻¹] | Krel (Phase solubility diagram [5]) | Highest drug concentration achieved with container (Phase solubility diagram [6]) [mM] | Highest drug concentration achieved with container (Phase solubility diagram [3]) [mM] | gel formation (Phase solubility diagram [4]; 68 mM container M2C4) | Initial slope of the PSD (Phase solubility diagram [4]) | Ka of container•drug complex (Phase solubility diagram [4]) [M⁻¹] | Krel (Phase solubility diagram [4]) | gel formation (Phase solubility diagram [5]; 68 mM container M2C2) | Highest drug concentration achieved with container (Phase solubility diagram [5]) [mM] | Krel [1] | S0, inherent solubility of the drug [7] [mM] | inherent solubility of container [8] [mM] | average Krel relative to HP-β-CD (Phase solubility diagram [3]; SBE-β-CD versus HP-β-CD, averaged over drugs of the test set)
1 | CCCCc1oc2ccccc2c1C(=O)c1cc(I)c(OCCN(CC)CC)c(I)c1 [Amiodarone] | 1.03 | 1500 | 0.60 | 23000 | greater than 16 mM | 0.65 | 28000 | 19 | – | – | – | – | – | – | – | – | – | – | – | –
2 | C[C@@H](c1ncncc1F)[C@](O)(Cn1cncn1)c1ccc(F)cc1F [Voriconazole] | – | – | 0.53 | 30000 | – | 0.89 | 210000 | 29 | 9.23 | 94.7 | no evidence of gel formation | 0.85 | 140000 | 19 | no evidence of gel formation | 61.9 | – | – | – | –
3 | C[C@]12CC[C@@H]3c4ccc(O)cc4CC[C@H]3[C@@H]1CC[C@@H]2O [Estradiol] | 0.92 | 26000 | 0.59 | 170000 | – | 0.67 | 230000 | 9.1 | – | – | – | 0.59 | 160000 | 6.5 | – | – | 51 | – | – | –
4 | COc1cc2c(cc1O)CC[C@@H]1[C@@H]2CC[C@]2(C)[C@@H](O)CC[C@@H]12 [2-Methoxy estradiol] | 0.79 | – | 0.21 | – | – | 0.49 | – | 12/– | 6.42 | 35.9 | – | – | – | – | – | 34.1 | 47/– | – | – | –
5 | C#C[C@]1(O)CC[C@H]2[C@@H]3CCc4cc(O)ccc4[C@H]3CC[C@@]21C [Ethynyl Estradiol] | 1.1 | 36000 | – | – | – | – | – | – | 10.5 | 131 | – | – | – | – | – | 33.6 | – | – | – | –
6 | CC[C@@]1(O)C(=O)OCc2c1cc1n(c2=O)Cc2cc3ccccc3nc2-1 [Camptothecin] | 1.1 | – | 0 | – | – | 0.41 | 13000 | 1 | 11.6 | 0 | – | – | – | – | – | 28.3 | – | – | – | –
7 | N[C@@H](Cc1ccc(N(CCCl)CCCl)cc1)C(=O)O [Melphalan] | 1.1 | – | 0.50 | – | – | 0.43 | – | 6.0/– | 16.1 | 87.8 | – | – | – | – | – | 38.2 | – | – | – | –
8 | C(=C\c1ccccc1)/CN1CCN(C(c2ccccc2)c2ccccc2)CC1 [Cinnarizine] | – | – | 0.008 | 580 | – | 0.26 | 25000 | 170 | – | – | – | – | – | – | – | – | – | – | – | –
9 | COc1ccc2c(c1)c(CC(=O)O)c(C)n2C(=O)c1ccc(Cl)cc1 [Indomethacin] | 0.47 | 2400 | 0.23 | 51000 | – | 0.13 | 25000 | 11 | 6.70 | 9.92 | – | – | – | – | – | 6.69 | 67 | – | – | –
10 | Cc1c(Cl)cccc1Nc1ccccc1C(=O)O [Tolfenamic acid] | 0.54 | 4100 | 0.11 | 64000 | – | 0.11 | 66000 | 16 | 5.6 | 8.07 | – | – | – | – | – | 6.79 | 150 | – | – | –
11 | CCCSc1ccc2nc(NC(=O)OC)[nH]c2c1 [Albendazole] | 0.48 | 5400 | 0.027 | 11000 | – | 0.035 | 14000 | 2.4 | 4.48 | 3.94 | – | – | – | – | – | 2.78 | 62 | – | – | –
12 | CC/C(=C(\c1ccccc1)c1ccc(OCCN(C)C)cc1)c1ccccc1 [Tamoxifen] | 0.10 | 2400 | – | – | – | – | – | – | – | – | – | – | – | – | – | – | 3.9 | – | – | –
13 | O=C(NC1=CC(=O)[C@H]2O[C@H]2[C@H]1O)c1cc2ccccc2[nH]c1=O [PBS-1086] | 0.89 | – | 0 | – | – | 0.70 | 510000 | 1 | 12.5 | 0 | – | – | – | – | – | 16.5 | 3.5 | 0.0045 | – | –
14 | sulfobutylether-β-cyclodextrin [SBE-β-CD] | – | – | – | – | – | – | – | – | – | – | – | – | – | – | – | – | – | – | > 175 | 12
15 | O=C1CCc2ccc(OCCCCN3CCN(c4cccc(Cl)c4Cl)CC3)cc2N1 [Aripiprazole] | 0.31 | – | 0.048 | 2200 | – | 0.28 | 17000 | 7.7 | 3.20 | 8.44 | – | – | – | – | – | 9.26 | 8.8 | – | – | –
